Measurements taken from patent US11040954B1, “CXCR3 receptor agonists” (RECEPTOS LLC, priority 2016, dated 2021).

biological target: T1, CXCR3 (Homo sapiens, UniProt P49682); assay: CXCR3 cAMP agonist assay (cAMP Hunter CHOK1 CXCR3 Gi cell line, forskolin-stimulated, HitHunter cAMP detection); format: cell-based; conditions: cAMP Hunter CHOK1 CXCR3 Gi cells, 20 μM forskolin, 30 minutes; read-out: Activity (CXCR3 cAMP agonist assay compound EC50)
T1 construct: host or cells: CHO-K1 (cAMP Hunter CHOK1 CXCR3 Gi cell line)
T1 sequence (P49682 1-368): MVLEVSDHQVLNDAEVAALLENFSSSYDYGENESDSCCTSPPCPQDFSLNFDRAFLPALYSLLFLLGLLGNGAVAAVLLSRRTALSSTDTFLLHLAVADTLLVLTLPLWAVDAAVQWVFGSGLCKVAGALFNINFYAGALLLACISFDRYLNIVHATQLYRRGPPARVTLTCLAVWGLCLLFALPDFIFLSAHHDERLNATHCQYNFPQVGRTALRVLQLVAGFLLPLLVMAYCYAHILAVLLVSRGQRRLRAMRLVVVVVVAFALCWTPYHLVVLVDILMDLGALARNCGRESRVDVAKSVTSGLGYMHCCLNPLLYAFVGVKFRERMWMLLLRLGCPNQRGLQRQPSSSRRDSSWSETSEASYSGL
Method in brief: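 Agonist activity was measured as suppression of forskolin (20 μM)-induced cAMP, read by luminescent enzyme-fragment complementation with a cAMP standard curve and CXCL11 defining full efficacy. Assay used 50,000 CXCR3 Gi CHOK1 cells/well in pH 7.4 HEPES-buffered HBSS with 0.1% BSA, compound 0-10 μM over 12 points, 30 min incubation.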

EC50 [µM]	SMILES
0.25 to 0.5	CN(C)CCCC[C@H](NC(=O)[C@@H]1Cc2ccccc2CN1C(=O)CCC(=O)c1ccccc1)C(=O)Nc1ccc(Cl)c(Cl)c1 [Compound 1-31]
0.05 to 0.25	Cc1cc(C(=O)CCC(=O)N2Cc3ccccc3C[C@H]2C(=O)N[C@@H](CCCCN)C(=O)Nc2ccc(Cl)c(C)c2)ccc1F [Compound 7-3]
> 0.5	Cc1cc(NC(=O)[C@H](CCN)NC(=O)[C@H]2Cc3ccccc3CN2C(=O)CCC(=O)c2ccccc2)ncc1Cl [Compound 4-17]
0.25 to 0.5	Cc1cc(NC(=O)[C@H](CCN)NC(=O)[C@@H]2Cc3ccccc3CN2C(=O)CCC(=O)N2CC(Cc3ccccc3)C2)ccc1Cl [Compound 12-38]
0.05 to 0.25	Cc1cc(NC(=O)C(NC(=O)[C@@H]2Cc3ccccc3CN2C(=O)CCC(=O)c2ccccc2)C2CCN(C)CC2)ccc1Cl (mixture of isomers) [Compound 6-5]
< 0.05	CC(C)NCC[C@H](NC(=O)[C@@H]1Cc2ccccc2CN1C(=O)CCC(=O)c1ccccc1)C(=O)Nc1ccc(Cl)c(Cl)c1F [Compound 8-7]
0.05 to 0.25	Cc1cc(NC(=O)[C@H](CCN2CCOCC2)NC(=O)[C@@H]2Cc3ccccc3CN2C(=O)CCC(=O)c2ccccc2)ccc1Cl [Compound 5-4]
0.05 to 0.25	Cc1cc(NC(=O)[C@H](CCC(N)=O)NC(=O)[C@@H]2Cc3ccccc3CN2C(=O)CCC(=O)c2ccccc2)ccc1Cl [Compound 3-13]
0.05 to 0.25	Cc1cc(Cl)ccc1NC(=O)[C@H](CCCCN)NC(=O)[C@@H]1Cc2ccccc2CN1C(=O)CCC(=O)c1ccccc1 [Compound 1-24]
0.05 to 0.25	Cc1cc(NC(=O)[C@H](CCN2CCC(F)(F)CC2)NC(=O)[C@@H]2Cc3ccccc3CN2C(=O)CCC(=O)c2ccccc2)ccc1Cl [Compound 17-4]
< 0.05	Cc1cc(NC(=O)[C@H](CCCNC(C)C)NC(=O)[C@@H]2Cc3ccccc3CN2C(=O)CCC(=O)c2ccccc2)ccc1Cl [Compound 8-5]
< 0.05	COc1cc(Cl)c(C)cc1NC(=O)[C@H](CCN)NC(=O)[C@@H]1Cc2ccccc2CN1C(=O)CCC(=O)c1ccccc1 [Compound 2-25]
0.05 to 0.25	NC(=O)NCCC[C@H](NC(=O)[C@@H]1Cc2ccccc2CN1C(=O)CCC(=O)c1ccccc1)C(=O)Nc1ccc(Cl)c(Cl)c1 [Compound 3-1, (S)—N—((S)-1-((3,4-dichlorophenyl)amino)-1-oxo-5-ureidopentan-2-yl)-2-(4-oxo-4-phenylbutanoyl)-1,2,3,4-tetrahydroisoquinoline-3-carboxamide]
0.05 to 0.25	Cc1cc(NC(=O)[C@H](CCCCN)NC(=O)[C@@H]2Cc3ccccc3CN2C(=O)CCC(=O)c2cccc(N(C)C)c2)ccc1Cl [Compound 7-6]
< 0.05	COc1cc(C)c(Cl)cc1NC(=O)[C@H](CCN)NC(=O)[C@@H]1Cc2ccccc2CN1C(=O)CCC(=O)c1ccccc1 [Compound 1-36]
< 0.05	Cc1cc(NC(=O)[C@H](CCNC2CC2)NC(=O)[C@@H]2Cc3ccccc3CN2C(=O)CCC(=O)c2ccccc2)ccc1Cl [Compound 16-1, (S)—N—((S)-1-((4-chloro-3-methylphenyl)amino)-4-(cyclopropylamino)-1-oxobutan-2-yl)-2-(4-oxo-4-phenylbutanoyl)-1,2,3,4-tetrahydroisoquinoline-3-carboxamide]
> 0.5	NCCCC[C@H](NC(=O)[C@@H]1Cc2ccccc2CN1C(=O)CCC(=O)c1ccccc1)C(=O)Nc1ccc(F)c(F)c1 [Compound 1-21]
0.05 to 0.25	Cc1cc(NC(=O)[C@H](CCN2CCNC(=O)C2)NC(=O)[C@@H]2Cc3ccccc3CN2C(=O)CCC(=O)c2ccccc2)ccc1Cl [Compound 17-3]
< 0.05	CC1(C)CCc2cc(NC(=O)[C@H](CCN)NC(=O)[C@@H]3Cc4ccccc4CN3C(=O)CCC(=O)c3ccccc3)ccc21 [Compound 2-72]

More lines, now with the values behind:

SMILES	EC50 [µM]
Cc1cc(NC(=O)[C@H](CCN)NC(=O)[C@@H]2Cc3ccccc3CN2C(=O)CCC(=O)N2CCC2)ccc1Cl [Compound 12-30]	0.05 to 0.25
Cc1cc(NC(=O)[C@H](CCN)NC(=O)[C@@H]2Cc3ccccc3CN2C(=O)CCC(=O)N2CCCC2(C)C)ccc1Cl [Compound 12-31]	< 0.05
Cc1cccc(NC(=O)[C@H](CCN)NC(=O)[C@@H]2Cc3ccccc3CN2C(=O)CCC(=O)c2ccccc2)c1F [Compound 2-32]	< 0.05
Cc1cc(NC(=O)[C@H](CCN)NC(=O)[C@@H]2Cc3ccccc3CN2C(=O)CCC(=O)NCCOC(C)C)ccc1Cl [Compound 12-89]	> 0.5
Cc1cc(NC(=O)[C@H](CCN)NC(=O)[C@@H]2Cc3ccccc3CN2C(=O)CCC(=O)N2CCCC23CCC3)ncc1Cl [Compound 12-156]	< 0.05
Cc1cc(NC(=O)[C@H](CCN)NC(=O)[C@@H]2Cc3ccccc3CN2C(=O)CCC(=O)N2CCOC[C@@H]2C)ccc1Cl [Compound 12-27]	0.05 to 0.25
N#Cc1c(NC(=O)[C@H](CCN)NC(=O)[C@@H]2Cc3ccccc3CN2C(=O)CCC(=O)c2ccccc2)ccc(Cl)c1Cl [Compound 14-26]	0.05 to 0.25
NCC[C@H](NC(=O)[C@@H]1Cc2ccccc2CN1C(=O)CCC(=O)c1ccccc1)C(=O)Nc1cccc(Cl)c1F [Compound 2-34]	< 0.05
CCN(CC(C)(C)C)C(=O)CCC(=O)N1Cc2ccccc2C[C@H]1C(=O)N[C@@H](CCN)C(=O)Nc1ccc(Cl)c(Cl)c1F [Compound 15-40]	0.05 to 0.25
Cc1cc(NC(=O)[C@H](CCN)NC(=O)[C@@H]2Cc3ccccc3CN2C(=O)CCC(=O)N2CCC(c3ccccc3)C2)ccc1Cl (stereo partly shown) [Compound 12-54]	0.05 to 0.25
Cc1c(Cl)ccc(NC(=O)[C@H](CCN)NC(=O)[C@@H]2Cc3ccccc3CN2C(=O)CCC(=O)N2CCCC(C)(C)C2)c1Cl [Compound 15-50]	< 0.05
Cc1cc(NC(=O)[C@H](CCN)NC(=O)[C@@H]2Cc3ccccc3CN2C(=O)CCC(=O)N2CCC[C@@H](C)C2)ccc1Cl [Compound 12-57]	< 0.05
COc1cc(F)c(F)cc1NC(=O)[C@H](CCN)NC(=O)[C@@H]1Cc2ccccc2CN1C(=O)CCC(=O)c1ccccc1 [Compound 2-70]	0.25 to 0.5
Cc1cc(NC(=O)[C@H](CCN)NC(=O)[C@@H]2Cc3ccccc3CN2C(=O)CCC(=O)N2CCC[C@H]2C(F)F)ccc1Cl [Compound 12-143]	< 0.05
Cc1cc(NC(=O)[C@H](CCN)NC(=O)[C@@H]2Cc3ccccc3CN2C(=O)CCC(=O)N2CCC[C@H]2CF)ccc1Cl [Compound 12-139]	< 0.05
Cc1cc(NC(=O)[C@H](CCN)NC(=O)[C@@H]2Cc3ccccc3CN2C(=O)CCC(=O)N2CCCCC2C(C)C)ccc1Cl (stereo partly shown) [Compound 12-121]	< 0.05
Cc1c(NC(=O)C2(NC(=O)[C@@H]3Cc4ccccc4CN3C(=O)CCC(=O)c3ccccc3)CCNCC2)ccc(Cl)c1Cl [Compound 11-2]	0.25 to 0.5
CN(C(=O)CCC(=O)N1Cc2ccccc2C[C@H]1C(=O)N[C@@H](CCN)C(=O)Nc1ccc(Cl)c(Cl)c1F)C1CCC1 [Compound 15-37]	0.05 to 0.25
Cc1cc(NC(=O)[C@H](CCN)NC(=O)[C@@H]2Cc3ccccc3CN2C(=O)CCC(=O)N2CCCC[C@H]2C)ccc1Cl [Compound 12-25]	< 0.05
Cc1cc(NC(=O)[C@H](CCN)NC(=O)[C@@H]2Cc3ccccc3CN2C(=O)CCC(=O)N2CCN(c3ncccn3)CC2)ccc1Cl [Compound 12-107]	0.05 to 0.25
Cc1cc(NC(=O)[C@H](CCN)NC(=O)[C@@H]2Cc3ccccc3CN2C(=O)CCC(=O)N2CCCC2C(F)(F)F)ccc1Cl (stereo partly shown) [Compound 12-51]	< 0.05
Cc1cccc(NC(=O)[C@H](CCN)NC(=O)[C@@H]2Cc3ccccc3CN2C(=O)CCC(=O)c2ccccc2)c1O [Compound 2-50]	0.25 to 0.5
Cc1cc(NC(=O)[C@H](CCN)NC(=O)[C@@H]2Cc3ccccc3CN2C(=O)CCC(=O)N2CCN(S(C)(=O)=O)CC2)ccc1Cl [Compound 12-15]	0.05 to 0.25
COc1cc2c(cc1NC(=O)[C@H](CCN)NC(=O)[C@@H]1Cc3ccccc3CN1C(=O)CCC(=O)c1ccccc1)CCC2 [Compound 1-39]	< 0.05
CC1(C)CCCCN1C(=O)CCC(=O)N1Cc2ccccc2C[C@H]1C(=O)NC(CC12CC(N)(C1)C2)C(=O)Nc1ccc(Cl)c(Cl)c1F (stereo partly drawn) [Compound 33-1, (3S)—N-(3-(3-aminobicyclo[1.1.1]pentan-1-yl)-1-((3,4-dichloro-2-fluorophenyl)amino)-1-oxopropan-2-yl)-2-(4-(2,2-dimethylpiperidin-1-yl)-4-oxobutanoyl)-1,2,3,4-tetrahydroisoquinoline-3-carboxamide]	< 0.05
N#Cc1c(NC(=O)[C@H](CCN)NC(=O)[C@@H]2Cc3ccccc3CN2C(=O)CCC(=O)c2ccccc2)ccc2c1CCC2 [Compound 35-1, (S)—N—((S)-4-amino-1-((4-cyano-2,3-dihydro-1H-inden-5-yl)amino)-1-oxobutan-2-yl)-2-(4-oxo-4-phenylbutanoyl)-1,2,3,4-tetrahydroisoquinoline-3-carboxamide]	< 0.05
CC(C)(O)C1CCCCN1C(=O)CCC(=O)N1Cc2ccccc2C[C@H]1C(=O)N[C@@H](CCN)C(=O)Nc1ccc(Cl)c(Cl)c1F (stereo partly shown) [Compound 15-55]	< 0.05
Cc1cc(NC(=O)[C@H](CCN)NC(=O)[C@@H]2Cc3ccccc3CN2C(=O)CCC(=O)N2CC3(CCOCC3)C2)ccc1Cl [Compound 12-24]	0.25 to 0.5
Cc1cc(NC(=O)[C@H](CCN)NC(=O)[C@@H]2Cc3ccccc3CN2C(=O)CCC(=O)N2CC3(CCCCC3)C2)ccc1Cl [Compound 12-7]	< 0.05
NCC[C@H](NC(=O)[C@@H]1Cc2ccccc2CN1C(=O)CCC(=O)N1CCN2CCC[C@@H]2C1)C(=O)Nc1ccc(Cl)c(Cl)c1F [Compound 15-49]	< 0.05
